Experimental data as given in paper PMC3527734, “Peripheral injections of melanin-concentrating hormone receptor 1 antagonist S38151 decrease food intake and body weight in rodent obesity models” (Frontiers in Endocrinology, 2012).
Where a SMILES comes first, the peptide text is derived from it.

Key:
Zucker fa/fa rats [1] = conditions: cyclophosphamide 100 mg/kg i.p., S38151 20 nmol/kg (28 μg/kg) i.c.v., n = 8
Experimental: These experiments were performed with modifications to previously described methods (Madden et al., [1999]). Rats were individually housed in wire-bottomed plastic cages with free access to both food pellets (6 mm diameter A03 UAR) and kaolin powder. The food pellets were presented in a small porcelain bowl on the floor of the cage. The kaolin powder was presented in a metal feeding dish attached to the inside of the cage. After a 2-week habituation period to these conditions, the animals were randomized into five treatment groups based on the quantity of food eaten during the stabilization period. In addition, those rats that consistently spilled the kaolin powder were eliminated from the study. One day after randomization, the animals were injected just before the beginning of the dark phase with either cyclophosphamide (100 mg/kg, i.p.), or S38151 [20 nmol/kg (28 μg/kg) i.c.v.] or vehicle [(artificial CSF) i.c.v.]. After injection, the quantity of kaolin and food ingested during the following 24-h period was determined. Food or kaolin spilled by the animals was collected at the end of the experiment, and total food and kaolin intake measurements were corrected for this loss.
Figure 5 The effects of S38151 on conditioned taste aversion and pica in Zucker fa/fa rats. (A) In the conditioned taste aversion test, after a period of habituation of the animals to the experimental protocol, Zucker fa/fa rats were presented with 0.2% saccharine for 20 min after drinking water was removed from their cages for 18 h (test day 0). Animals were then injected (i.p.) with vehicle or lithium chloride, or with S38151 (20 nmol/kg, i.c.v). On test days 4, 7, 11, and 14, rats were presented with 0.2% saccharine, and the quantity consumed during a 20-min period was determined. Results are expressed as mean ± SEM (n = 10–11 rats per group). […] (B) In the pica test, Zucker fa/fa rats were injected (i.c.v.) with 20 nmol/kg S38151, or an equivalent volume of artificial cerebrospinal fluid vehicle. Food and kaolin intake during the following 24-h period were each measured. Results are expressed as mean ± SEM (n = 8 rats per group).

DIO mice = assay: daily i.p. S38151 in diet-induced obese mice; format: in vivo, mouse
Experimental: In these studies, 13-week-old female C57BL/6J, ob/ob, and MCH1-KO mice were used. The mice were maintained on a 12-h light/dark cycle (lights on at 07:30 and off at 19:30) at 22 ± 3°C, and supplied with food pellets (6 mm diameter A03, UAR Laboratory chow, Epinay Villemuisson France) and tap water ad libitum. To induce obesity in C57BL/6J (creating diet-induced obese, or DIO, mice), mice were fed a high-fat diet (60 kcal% fat, 20 kcal% protein, 20 kcal% carbohydrate, ref D12492 from Research Diets, New Brunswick, NJ08901, USA) for 8 weeks starting at 4 weeks of age. In these experiments, DIO mice, ob/ob mice, and MCH^−/−1 mice were individually housed in a modular chamber that was placed on an activity platform to concurrently measure the food intake, water intake, and activity of the mice (ADDENFI, Les Cordeliers, Paris, France). For at least 2 weeks before experimentation, mice were habituated to a diet of 6 mm diameter food pellets of the following composition: 67.5% food flour, 26.5% sucrose, 5% gum tragacanth, 1.25% magnesium stearate (A03 UAR, Orge, France), and to i.p. injection. After this habituation period, food intake, drink intake, and body weight were measured for 3 consecutive days. The mice were randomized into three groups based on their food and water intake over the three preceding 24-h periods, and on their body weight. […]
Figure 9 The effects of repeated daily S38151 injection on food and water intake, body weight, and motility in diet-induced obese (DIO) mice. […] Results are expressed as mean ± SEM (n = 8 mice per group).

Zucker fa/fa rats [2] = assay: daily i.c.v. administration, feeding, drinking, body weight and motility; format: in vivo, rat
Text: Wistar and Zucker fa/fa rats were anesthetized with Forène (Abbott Laboratories, Queenborough, UK), and a stainless steel guide cannula (Plastic Products Co, Roanoke, Va, USA) was stereotaxically implanted into the right lateral ventricle at the following coordinates relative to the bregma: AP −0.8 mm, L = −1.2 mm, and V = −3.5 mm. After a 7-day recovery period, during which the animals were handled each day to minimize non-specific stress, they were lightly anesthetized with Forène. Human/mouse/rat MCH (1 μg in a volume of 2.5 μ L, Bachem, Voisins-le-Bretonneux, France) or an equivalent volume of artificial cerebrospinal fluid (CSF) was then injected through the intraventricular cannula. Immediately after injection, the animals quickly recovered and were returned to their home cages. Only those animals responding within 2 h with a robust increase in food intake, indicating correct cannula placement, were used in the experiments described below. Two days after MCH injection, the rats were randomly assigned to different groups and studied in one of the following protocols.
The TSE Drinking and Feeding Monitor system was used to analyze ingestive behavior in these experiments (TSE Technical & Scientific Equipment GmbH, Bad Homburg, Germany). The rats' motility was also determined in these experiments using the MoTil® system (TSE). Zucker fa/fa rats were placed individually into plastic cages to which were attached both a feeding and a drinking sensor. The animals were habituated to normal food (A03 UAR, Orge, France) and water for at least 2 weeks before experimentation. […] The injections were repeated daily for a total of 7 days. After 7 days, the injections were stopped and each measured parameter was followed during a 5-day washout period.
Figure 4 The effects of repeated daily central administration of S38151 on food intake, water intake, body weight, and motility in Zucker fa/fa rats. One hour prior the beginning of the dark phase, different doses of S38151 (5, 10, or 20 nmol/kg) or vehicle were injected (i.c.v.) once daily for 7 days, followed by a washout period of 5 days. […] Repeated measures Two-Way ANOVA (treatment × time) was performed with a repeated measure of the factor “time.” Significant treatment and interaction effects are shown on the graph. ^+P < 0.05; ^++P < 0.01; ^+++P < 0.001.

[3] = S38151 30 mg/kg i.p. daily for 16 days, data not shown
[4] = S38151 10 and 30 mg/kg i.p. daily for 5 days, significant from day 2 only at 30 mg/kg, n = 8

CSCC[C@@H]1NC(=O)[C@@H](NC(=O)c2ccc(NC(=N)N)cc2)CSSC[C@@H](C(=O)N[C@@H](Cc2c[nH]c3ccccc23)C(=O)O)NC(=O)[C@@H]2CCCN2C(=O)[C@H](CCCNC(=N)N)NC(=O)[C@H](Cc2ccc(O)cc2)NC(=O)[C@H](C(C)C)NC(=O)[C@H](CCCNC(=N)N)NC(=O)[C@H](CC(C)C)NC1=O [S38151, p-guanidinobenzoyl-(Des-Gly10)-MCH (7–17)] (HELM PEPTIDE1{[N=C(N)Nc1ccc(C(=O)[*:2])cc1].C.M.L.R.V.Y.R.P.C.W}$PEPTIDE1,PEPTIDE1,2:R3-10:R3$$$V2.0; C-terminus assumed)
kaolin intake, 24 h, pica test (Zucker fa/fa rats [1]; vehicle 0.05 ± 0.01 g): did not significantly alter
food intake, 24 h, pica test (Zucker fa/fa rats [1]; vehicle 27 ± 1 g): significantly reduced
body weight gain (DIO mice; [3]): significant reduction
glycemia and insulinemia (DIO mice; [3]): reduced
triglycerides, free fatty acids, and fat mass (DIO mice; [3]): significant reduction
glycemia and insulinemia (DIO mice; S38151 30 mg/kg i.p., day 6, data not shown): significant reductions
body weight gain (DIO mice; S38151 10 and 30 mg/kg i.p. daily for 5 days, significant at day 3 and day 1, respectively): reduction
drink intake (DIO mice; [4]): dose-dependent inhibition
food intake (DIO mice; [4]): dose-dependent inhibition
motility (DIO mice; S38151 10 and 30 mg/kg i.p., day 3 to day 5): significant reduction
body weight gain during the washout period (Zucker fa/fa rats [2]; 5-day washout after 10 nmol/kg S38151 i.c.v. for 7 days): remained significantly less than control values
motility during the washout period (Zucker fa/fa rats [2]; 5-day washout after 20 nmol/kg S38151 i.c.v. for 7 days): remained significantly elevated
food intake (Zucker fa/fa rats [2]; S38151 5, 10, 20 nmol/kg i.c.v. daily for 7 days, significant only at 20 nmol/kg, n = 8): dose-dependent inhibition
motility (Zucker fa/fa rats [2]; S38151 10 and 20 nmol/kg i.c.v. daily for 7 days): significantly increased
body weight gain (Zucker fa/fa rats [2]; S38151 10 and 20 nmol/kg i.c.v. daily for 7 days, compared with control rats): dose-dependent reduction
water intake (Zucker fa/fa rats [2]; S38151 i.c.v. daily for 7 days, all injected doses except the 5 nmol dose): significantly inhibited
